In publication PMC4641453 (Science translational medicine, 2015):
Values after ≈ are worked out from the molar mass of the structure shown. Where two headings read alike, the source gives them in different places.

Experiments:
S. pneumoniae isolates = assay type: cell-based; details: Streptococcus pneumoniae
[1] = tested on: S. pneumoniae strain D39x; test: Mouse intranasal pneumococcal challenge, pneumonia and bacteremia; assay type: in vivo, mice
[2] = tested on: MSSA, Staphylococcus aureus (ATCC 29213); test: microbe, parasite or virus in culture; assay type: cell-based; details: ATCC29213|MSSA, read-out: MIC MSSA
[3] = tested on: Neisseria meningitidis (ATCC 13077); test: microbe, parasite or virus in culture; assay type: cell-based; details: ATCC13077, read-out: Zone of inhibition Nm
[4] = tested on: Bacillus subtilis (ATCC 23857); test: microbe, parasite or virus in culture; assay type: cell-based; details: ATCC23857, read-out: MIC Bs
[5] = tested on: Legionella pneumophila (ATCC 33153); test: microbe, parasite or virus in culture; assay type: cell-based
[6] = tested on: Listeria monocytogenes (NS512); test: microbe, parasite or virus in culture; assay type: cell-based
[7] = tested on: Chlamydia trachomatis serovar L2 (strain 434/Bu); test: Chlamydial susceptibility testing in infected HeLa 229 monolayers; details: up to 100 μg/mL, C. trachomatis-infected monolayers
[8] = tested on: MRSA, Staphylococcus aureus (NRS70); test: microbe, parasite or virus in culture; assay type: cell-based; details: MRSA|NRS70, read-out: MIC MRSA
[9] = tested on: S. pneumoniae strain TIGR4; test: Mouse intranasal pneumococcal challenge, bacteremia and meningitis; assay type: in vivo, mice; details: 5 mg/kg from 18 hours after intranasal challenge
[10] = tested on: Enterococcus faecalis (ATCC 33186); test: microbe, parasite or virus in culture; assay type: cell-based; details: ATCC33186, read-out: MIC Ef
[11] = assay type: physicochemical; details: pH 7
[12] = tested on: Streptococcus pneumoniae mutants resistant to compound 1; test: In vitro generation and MIC testing of compound 1 resistant mutants; assay type: cell-based; details: fifteen compound 1 resistant S. pneumoniae clones (RpsE G27R)
[13] = tested on: Moraxella catarrhalis (ATCC 25238); test: microbe, parasite or virus in culture; assay type: cell-based; details: ATCC25238, read-out: MIC Moraxella catarrhalis
[14] = tested on: Streptococcus pyogenes (ATCC 700294); test: microbe, parasite or virus in culture; assay type: cell-based; details: ATCC700294, read-out: MIC Spy
[15] = rat, in vivo, 10 mg/kg; cited from earlier work
[16] = tested on: Haemophilus influenzae (ATCC 49247); test: microbe, parasite or virus in culture; assay type: cell-based; details: ATCC49247, read-out: Zone of inhibition Hi
[17] = tested on: Streptococcus pneumoniae (R6); test: microbe, parasite or virus in culture; assay type: cell-based; details: read-out: MIC Spn
[18] = tested on: Neisseria gonorrhoeae (ATCC 49226); assay type: cell-based; details: 40 μg of compound on 6 mm disc; range of two experiments
[19] = mean (% CV); cited from earlier work
[20] = ATCC700904, read-out: MIC ATCC700904

CO/N=C(\C(=O)N[C@@H]1C(=O)N2C(C(=O)O)=C(COC(C)=O)CS[C@H]12)c1csc(N)n1 [Cefotaxime]
MIC (S. pneumoniae isolates; [20]): 0.2 µg/mL (≈ 0.439 µM)
MIC (S. pneumoniae isolates; read-out: MIC 8249): 3 µg/mL (≈ 6.59 µM)
MIC (S. pneumoniae isolates; read-out: MIC Daw19): 1 µg/mL (≈ 2.2 µM)
MIC (S. pneumoniae isolates; read-out: MIC Daw26): 3 µg/mL (≈ 6.59 µM)
MIC (S. pneumoniae isolates; read-out: MIC Daw47): 3 µg/mL (≈ 6.59 µM)

CC1(C)S[C@@H]2[C@H](NC(=O)Cc3ccccc3)C(=O)N2[C@H]1C(=O)O [Penicillin G]
MIC (S. pneumoniae isolates; [20]): > 2 µg/mL
MIC (S. pneumoniae isolates; read-out: MIC 8249): > 2 µg/mL
MIC (S. pneumoniae isolates; read-out: MIC A66.1x): ≤ 0.2 µg/mL
MIC (S. pneumoniae isolates; read-out: MIC BAA-1407): 2 µg/mL (≈ 5.98 µM)
MIC (S. pneumoniae isolates; read-out: MIC BHN97x): ≤ 0.2 µg/mL
MIC (S. pneumoniae isolates; read-out: MIC D39X): ≤ 0.2 µg/mL
MIC (S. pneumoniae isolates; read-out: MIC Daw7): 3 µg/mL (≈ 8.97 µM)
MIC (S. pneumoniae isolates; read-out: MIC Daw8): 3 µg/mL (≈ 8.97 µM)
MIC (S. pneumoniae isolates; read-out: MIC Daw9): 2 µg/mL (≈ 5.98 µM)
MIC (S. pneumoniae isolates; read-out: MIC Daw19): 3 µg/mL (≈ 8.97 µM)
MIC (S. pneumoniae isolates; read-out: MIC Daw26): 3 µg/mL (≈ 8.97 µM)
MIC (S. pneumoniae isolates; read-out: MIC Daw27): 3 µg/mL (≈ 8.97 µM)
MIC (S. pneumoniae isolates; read-out: MIC Daw47): 3 µg/mL (≈ 8.97 µM)
MIC (S. pneumoniae isolates; read-out: MIC Daw62): 3 µg/mL (≈ 8.97 µM)
MIC (S. pneumoniae isolates; read-out: MIC Daw64): 2 µg/mL (≈ 5.98 µM)
MIC (S. pneumoniae isolates; read-out: MIC OVA2): ≤ 0.2 µg/mL
MIC (S. pneumoniae isolates; read-out: MIC R6): ≤ 0.2 µg/mL
MIC (S. pneumoniae isolates; read-out: MIC T4X): ≤ 0.2 µg/mL

[H]/N=C(/N)N[C@H]1[C@H](O)[C@@H](O)[C@H](O[C@@H]2O[C@@H](C)[C@](O)(C=O)[C@H]2O[C@@H]2O[C@@H](CO)[C@H](O)[C@@H](O)[C@@H]2NC)[C@@H](N/C(N)=N\[H])[C@@H]1O [Streptomycin]
MIC (S. pneumoniae isolates; [20]): > 200 µg/mL
MIC (S. pneumoniae isolates; read-out: MIC 8249): > 200 µg/mL
MIC (S. pneumoniae isolates; read-out: MIC A66.1x): 13 µg/mL (≈ 22.4 µM)
MIC (S. pneumoniae isolates; read-out: MIC BAA-1407): 50 µg/mL (≈ 86 µM)
MIC (S. pneumoniae isolates; read-out: MIC BHN97x): 13 µg/mL (≈ 22.4 µM)
MIC (S. pneumoniae isolates; read-out: MIC D39X): 13 µg/mL (≈ 22.4 µM)
MIC (S. pneumoniae isolates; read-out: MIC Daw7): 25 µg/mL (≈ 43 µM)
MIC (S. pneumoniae isolates; read-out: MIC Daw8): 25 µg/mL (≈ 43 µM)
MIC (S. pneumoniae isolates; read-out: MIC Daw9): > 200 µg/mL
MIC (S. pneumoniae isolates; read-out: MIC Daw62): 25 µg/mL (≈ 43 µM)
MIC (S. pneumoniae isolates; read-out: MIC Daw64): 25 µg/mL (≈ 43 µM)
MIC (S. pneumoniae isolates; read-out: MIC OVA2): 13 µg/mL (≈ 22.4 µM)
MIC (S. pneumoniae isolates; read-out: MIC R6): 13 µg/mL (≈ 22.4 µM)
MIC (S. pneumoniae isolates; read-out: MIC T4X): 6 µg/mL (≈ 10.3 µM)

CC1(C)S[C@@H]2[C@H](NC(=O)[C@H](N)c3ccccc3)C(=O)N2[C@H]1C(=O)O [ampicillin]
Survival of infected mice, 9 day experiment ([1]; matched doses 2.5 or 5 mg/kg): all survived
Reduction of bacterial titers ([1]; within 48 hours post infection, 2.5 or 5 mg/kg): more than 3 logs

CN[C@@H]1[C@H](O)[C@H](NC)[C@H]2O[C@@]3(O)C(=O)C[C@@H](C)O[C@H]3O[C@@H]2[C@H]1O [Spectinomycin, spectinomycin]
Survival of infected mice ([1]; 5 mg/kg BID subcutaneous from 18 hours post challenge, D39x, n=5): died or were humanely euthanized by 120 hours post challenge
Bioluminescent imaging of infection ([1]; 72 hours post challenge, 5 mg/kg BID): systemic bacterial infection
MIC [2]: 100 µg/mL (≈ 301 µM)
zone of inhibition at 40 µg/disc [3]: 13 to 15 mm
MIC [4]: 12.5 µg/mL (≈ 37.6 µM)
MIC (S. pneumoniae isolates; [20]): 25 µg/mL (≈ 75.2 µM)
MIC (S. pneumoniae isolates; read-out: MIC 8249): 25 µg/mL (≈ 75.2 µM)
MIC (S. pneumoniae isolates; read-out: MIC A66.1x): 6 µg/mL (≈ 18.1 µM)
MIC (S. pneumoniae isolates; read-out: MIC BAA-1407): 13 µg/mL (≈ 39.1 µM)
MIC (S. pneumoniae isolates; read-out: MIC BHN97x): 6 µg/mL (≈ 18.1 µM)
MIC (S. pneumoniae isolates; read-out: MIC D39X): 13 µg/mL (≈ 39.1 µM)
MIC (S. pneumoniae isolates; read-out: MIC Daw7): 25 µg/mL (≈ 75.2 µM)
MIC (S. pneumoniae isolates; read-out: MIC Daw8): 25 µg/mL (≈ 75.2 µM)
MIC (S. pneumoniae isolates; read-out: MIC Daw9): 13 µg/mL (≈ 39.1 µM)
MIC (S. pneumoniae isolates; read-out: MIC Daw19): 25 µg/mL (≈ 75.2 µM)
MIC (S. pneumoniae isolates; read-out: MIC Daw26): 50 µg/mL (≈ 150 µM)
MIC (S. pneumoniae isolates; read-out: MIC Daw27): 25 µg/mL (≈ 75.2 µM)
MIC (S. pneumoniae isolates; read-out: MIC Daw47): 25 µg/mL (≈ 75.2 µM)
MIC (S. pneumoniae isolates; read-out: MIC Daw62): 25 µg/mL (≈ 75.2 µM)
MIC (S. pneumoniae isolates; read-out: MIC Daw64): 25 µg/mL (≈ 75.2 µM)
MIC (S. pneumoniae isolates; read-out: MIC OVA2): 13 µg/mL (≈ 39.1 µM)
MIC (S. pneumoniae isolates; read-out: MIC R6): 13 µg/mL (≈ 39.1 µM)
MIC (S. pneumoniae isolates; read-out: MIC T4X): 13 µg/mL (≈ 39.1 µM)
Zone of inhibition Lp ([5]; 40 μg of compound on 6 mm disc, 48 hours, range of two experiments): completely inactive
zone of inhibition at 40 µg/disc ([5]; Legionella pneumophila, ATCC33153, 48 h, read-out: Zone of inhibition Lp): 0 mm
MIC ([6]; Listeria monocytogenes, read-out: MIC Lm): 50 µg/mL (≈ 150 µM)
MIC Lm ([6]; NS512, range of two independent experiments): 50 µg/mL (≈ 150 µM)
Reduction of intracellular inclusions [7]: failed to reduce intracellular inclusions
MIC [8]: > 200 µg/mL
Survival of infected mice [9]: did not survive beyond 96 hours
MIC [10]: 100 µg/mL (≈ 301 µM)
Chemical stability (percent of parent over time) [11]: continuously declined over time
MIC against resistant clones [12]: weakly susceptible
MIC [13]: 6 µg/mL (≈ 18.1 µM)
MIC [14]: 25 µg/mL (≈ 75.2 µM)
IV Pharmacokinetics CL [15]: 0.60 (11.5) L/hr/Kg
IV Pharmacokinetics T1/2 [15]: 0.75 (49.3) hr
IV Pharmacokinetics Vd [15]: 0.76 (45.2) L/Kg
IV Pharmacokinetics fe (fraction excreted unchanged in urine) [15]: 0.55 (27.0)
zone of inhibition at 40 µg/disc [16]: 12 mm
MIC [17]: 12.5 µg/mL (≈ 37.6 µM)
Zone of inhibition Ng [18]: 10–11.5 mm
Microsomal Stability t1/2 [19]: 6.43 (0.13) hr

CC[C@H]1OC(=O)[C@H](C)[C@@H](O[C@H]2C[C@@](C)(OC)[C@@H](O)[C@H](C)O2)[C@H](C)[C@@H](O[C@@H]2O[C@H](C)C[C@H](N(C)C)[C@H]2O)[C@](C)(O)C[C@@H](C)C(=O)[C@H](C)[C@@H](O)[C@]1(C)O [Erythromycin]
MIC (S. pneumoniae isolates; [20]): 2 µg/mL (≈ 2.73 µM)
MIC (S. pneumoniae isolates; read-out: MIC 8249): > 2 µg/mL
MIC (S. pneumoniae isolates; read-out: MIC BAA-1407): 50 µg/mL (≈ 68.1 µM)
MIC (S. pneumoniae isolates; read-out: MIC Daw7): ≤ 0.2 µg/mL
MIC (S. pneumoniae isolates; read-out: MIC Daw8): ≤ 0.2 µg/mL
MIC (S. pneumoniae isolates; read-out: MIC Daw9): 2 µg/mL (≈ 2.73 µM)
MIC (S. pneumoniae isolates; read-out: MIC Daw19): 1 µg/mL (≈ 1.36 µM)
MIC (S. pneumoniae isolates; read-out: MIC Daw26): 0.1 µg/mL (≈ 0.136 µM)
MIC (S. pneumoniae isolates; read-out: MIC Daw27): 1 µg/mL (≈ 1.36 µM)
MIC (S. pneumoniae isolates; read-out: MIC Daw47): 0.03 µg/mL (≈ 0.0409 µM)
MIC (S. pneumoniae isolates; read-out: MIC Daw62): ≤ 0.2 µg/mL
MIC (S. pneumoniae isolates; read-out: MIC Daw64): ≤ 0.2 µg/mL
MIC (S. pneumoniae isolates; read-out: MIC OVA2): 1 µg/mL (≈ 1.36 µM)
MIC (S. pneumoniae isolates; read-out: MIC R6): ≤ 0.2 µg/mL
